Experiments:
[1] = Pharmacokinetics of HAEE in rat blood after single i.v. bolus (dose dependence, chronic administration); details: for Cmax (maximum concentration in the blood) / AUC(0–∞) / T1/2(el) (elimination half-life) / Tmax: rat blood; for Cmax (maximum concentration in the blood): n = 6, sampling 2-30 min; for AUC(0–∞) / T1/2(el) (elimination half-life) / Tmax / ClT (total body clearance) / Kel (elimination rate constant, central compartment) / MRT (residence time) / Vd(c) (volume of distribution in the central compartment at Cmax) / Vd(extrap) / Vd(β) (volume of distribution in the elimination phase): n = 6
Method: In experiments on rats (Table 1, experimental groups 2–5), intravenous (i.v.) administration of the peptide and blood sampling were performed through the jugular veins. For this, in rats anesthetized with a mixture of ketamine (91 mg/kg) and xylazine (9.1 mg/kg), on the ventral side, in the area adjacent to the forelimbs and neck, two longitudinal skin incisions about 2.5 cm long were made on the right and left, and the jugular veins were dissected. An intravenous Flexicath G24 catheter (for heparin and peptide administration) (Medica LLC, Ivanovo, Russia) was installed in the left jugular vein and Flexicath G22 (for blood collection) in the right jugular vein. To prevent blood coagulation, 80 μL of heparin (5000 I.U./mL) was injected through the Flexicath G24 port before the injection of the peptide, and after 5 min a mixture of HAEE and [^3H]HAEE (400 μCi, in doses of 50, 300 or 900 μg/kg) in 200 μL of saline solution was injected for 10–15 s. Following that, after 2, 4, 6, 10, 20 and 30 min, approximately 0.3 mL of venous blood was collected into pre-weighed plastic tubes. After collection, the blood tubes were immediately frozen in liquid nitrogen and weighed. Before the pharmacokinetic study, rats in experimental group 5 were injected daily with i.p. peptide HAEE at a dose of 300 μg/kg for 28 days.
Frozen and weighed tissue samples in plastic tubes were freeze-dried for 48 h. The freeze-dried tissue samples were heated at 65 °C for 30 min, after which they were homogenized, and the peptide fraction was extracted with 90% aqueous acetonitrile containing 1% TFA [13]. To facilitate HPLC analysis of radioactively labeled HAEE and normalize the loss of the peptide during extraction, 10 μg of HAEE was added to the extraction solution for each sample. After centrifugation, the solution containing HAEE and blood components was dried under reduced pressure, stripped with methanol and re-centrifuged. The resulting solution containing a mixture of HAEE and [^3H]HAEE was subjected to evaporation under reduced pressure, re-extraction with 0.1% aqueous TFA solution and subsequent centrifugation. Quantitative analysis of the HAEE peptide was performed using HPLC on a Kromasil C18 column, 4 × 150 mm (Nouryon-Separation Products, Bohus, Sweden) in methanol concentration gradient (12–26% for 13 min), in 0.1% HFBA (heptafluorobutyric acid). The fraction containing the HAEE peptide was collected and its [^3H]HAEE content was determined by liquid scintillation counting. The obtained radioactivity value was normalized to the area of the HAEE peak in the chromatogram (UV absorbance at 220 nm).
To calculate the pharmacokinetic parameters, we used the values of HAEE peptide concentrations in blood and tissues averaged over three (rabbit) or six (rats and mice) animals. All quantitative values are given as means ± standard deviation. The calculation of pharmacokinetic parameters was performed by combining the model and non-model approaches using the software Borgia 1.03 (NPP Nauka Plus, Rovno, Ukraine) and SigmaPlot 11.0 (Systat Software, San Jose, CA, USA).

α4β2 nAChR = details: model oocytes, exogenous HAEE; cited from earlier work
Excerpt: (§1) The tetrapeptide HAEE had been proposed as one of the candidate molecules for inhibiting cerebral amyloidogenesis in AD [7]. This peptide is a synthetic analogue of the 35-His-Ala-Glu-Glu-38 (35-HAEE-38) fragment of the extracellular N-terminal domain of subunit α4 of the α4β2 nAChR. This fragment (conservative for humans, mice and chicken) forms the interface for the interaction of α4β2 nAChR with Aβ [5]. It has been previously shown by molecular modeling methods that this interaction is stabilized by ion bridges between the complementary charged side groups of the H/E and E/H amino acid ...

[2] = system: B6C3-Tg (APPswe, PSEN1-dE9) 85Dbo/j mice; details: intravenous injections of HAEE; control animals 14.2 ± 3.1; cited from earlier work
Excerpt: as §1

[3] = single i.v. bolus 300 μg/kg after a 28 day course of unlabeled HAEE 300 μg/kg/day
[4] = rat, i.v. bolus, range over doses of 50, 300 and 900 µg/kg
[5] = rat, single i.v. bolus 50 μg/kg
[6] = rat, single i.v. bolus 300 μg/kg after a 28 day course of unlabeled HAEE 300 μg/kg/day
[7] = rat, single i.v. bolus 300 μg/kg
[8] = rat, single i.v. bolus 900 μg/kg

For “Acetyl-His-Ala-Glu-Glu-Amide [HAEE, synthetic tetrapeptide, analogue of the 35–38 region of the α4 subunit of α4β2 nicotinic acetylcholine receptor]”, the “Cmax (maximum concentration in the blood)” value ([1]; single i.v. bolus 50 μg/kg HAEE + [3H]HAEE, HPLC + liquid scintillation) was 73.9 ng/mL, the “AUC(0–∞)” value ([1]; single i.v. bolus 50 μg/kg) was 1383 (ng/mL) × min and the “T1/2(el) (elimination half-life)” value ([1]; single i.v. bolus 50 μg/kg) was 23 min. The Tmax ([1]; single i.v. bolus 50 μg/kg) was 4 min, the “Cmax (maximum concentration in the blood)” value ([1]; single i.v. bolus 300 μg/kg HAEE + [3H]HAEE, HPLC + liquid scintillation) was 439 ng/mL and the “AUC(0–∞)” value [1, 3] was 12,137 (ng/mL) × min. For the same substance, the “T1/2(el) (elimination half-life)” value [1, 3] was 29 min, the Tmax [1, 3] was 4 min and the “Cmax (maximum concentration in the blood)” value [1, 3] was 444 ng/mL. The “AUC(0–∞)” value ([1]; single i.v. bolus 300 μg/kg) was 11,340 (ng/mL) × min, the “T1/2(el) (elimination half-life)” value ([1]; single i.v. bolus 300 μg/kg) was 22 min and the Tmax ([1]; single i.v. bolus 300 μg/kg) was 4 min. For the same substance, the “Cmax (maximum concentration in the blood)” value ([1]; single i.v. bolus 900 μg/kg HAEE + [3H]HAEE, HPLC + liquid scintillation) was 1322 ng/mL, the “AUC(0–∞)” value ([1]; single i.v. bolus 900 μg/kg) was 47,133 (ng/mL) × min and the “T1/2(el) (elimination half-life)” value ([1]; single i.v. bolus 900 μg/kg) was 25 min. The Tmax ([1]; single i.v. bolus 900 μg/kg) was 4 min, the ClT [1, 4] was 6.7 to 13 mL/min and the MRT [1, 4] was 32 to 36 min. For the same substance, the “T1/2(el)” value [1, 4] was 22 to 25 min, the “ClT (total body clearance)” value [1, 5] was 13.0 mL/min and the “Kel (elimination rate constant, central compartment)” value (from here on “Kel”) [1, 5] was 0.031 min⁻¹. For the same substance, the “MRT (residence time)” value [1, 5] was 33 min, the “Vd(c) (volume of distribution in the central compartment at Cmax)” value (“Vd(c)” below) [1, 5] was 107 mL and the “Vd(extrap)” value [1, 5] was 504 mL. For the same substance, the “Vd(β) (volume of distribution in the elimination phase)” value (“Vd(β)” below) [1, 5] was 425 mL, the “ClT (total body clearance)” value [1, 6] was 8.7 mL/min and the “Kel” value [1, 6] was 0.024 min⁻¹. The “MRT (residence time)” value [1, 6] was 42 min, the “Vd(c)” value [1, 6] was 111 mL and the “Vd(extrap)” value [1, 6] was 382 mL. For the same substance, the “Vd(β)” value [1, 6] was 362 mL, the “ClT (total body clearance)” value [1, 7] was 9.3 mL/min and the “Kel” value [1, 7] was 0.031 min⁻¹. For the same substance, the “MRT (residence time)” value [1, 7] was 32 min, the “Vd(c)” value [1, 7] was 122 mL and the “Vd(extrap)” value [1, 7] was 296 mL. For the same substance, the “Vd(β)” value [1, 7] was 299 mL, the “ClT (total body clearance)” value [1, 8] was 6.7 mL/min and the “Kel” value [1, 8] was 0.028 min⁻¹. The “MRT (residence time)” value [1, 8] was 36 min, the “Vd(c)” value [1, 8] was 108 mL and the “Vd(extrap)” value [1, 8] was 291 mL. The “Vd(β)” value [1, 8] was 237 mL, the “Effect of chronic administration on accumulation and pharmacokinetics” value ([1]; rats, 28 days daily 300 μg/kg then i.v. bolus 300 μg/kg, n = 6 vs intact rats n = 6) was “does not cause its accumulation in rats and does not affect the nature of its pharmacokinetics” and the “Effect on amyloid aggregates formed upon contact with α4β2 nAChR” value (α4β2 nAChR) was “are destroyed”. The “Average number of amyloid plaques in a brain section” value [2] was 5.8 ± 2.1.
